{"source": "ChEMBL document CHEMBL3351862", "about": "“Coumarin hybrids as novel therapeutic agents” (Bioorg Med Chem, 2014)", "key": {"Staphylococcus aureus": {"test_system": "Staphylococcus aureus", "assay": "Antimicrobial activity against methicillin-resistant Staphylococcus aureus", "type": "functional"}, "Platelet": {"test_system": "Platelet", "assay": "Inhibition of platelet (unknown origin) aggregation", "type": "functional, cell-based"}, "Cholinesterase [1]": {"biological_target": "T1, Cholinesterase (Homo sapiens, UniProt P06276)", "T1 sequence (P06276 whole entry)": "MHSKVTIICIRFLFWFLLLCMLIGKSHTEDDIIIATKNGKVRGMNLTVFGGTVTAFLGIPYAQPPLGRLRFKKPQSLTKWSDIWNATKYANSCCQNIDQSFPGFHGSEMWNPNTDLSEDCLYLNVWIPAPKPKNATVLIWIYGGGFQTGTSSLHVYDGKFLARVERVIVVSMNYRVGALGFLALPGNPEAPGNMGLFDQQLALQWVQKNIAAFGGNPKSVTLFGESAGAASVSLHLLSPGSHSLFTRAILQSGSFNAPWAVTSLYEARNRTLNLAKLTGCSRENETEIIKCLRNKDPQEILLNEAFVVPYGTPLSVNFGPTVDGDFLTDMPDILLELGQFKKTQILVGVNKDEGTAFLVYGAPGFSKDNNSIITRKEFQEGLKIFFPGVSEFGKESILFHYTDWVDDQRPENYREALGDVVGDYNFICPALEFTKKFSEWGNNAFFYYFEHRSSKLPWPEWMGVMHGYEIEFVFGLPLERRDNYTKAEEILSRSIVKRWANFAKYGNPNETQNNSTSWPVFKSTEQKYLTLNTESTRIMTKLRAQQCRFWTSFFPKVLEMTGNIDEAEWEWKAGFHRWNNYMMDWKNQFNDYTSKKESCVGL", "assay": "Ratio of galamthamine IC50 to compound IC50 for BuChE (unknown origin)"}, "Cholinesterase [2]": {"biological_target": "T1, Cholinesterase", "assay": "Inhibition of BuChE (unknown origin)"}, "KB": {"test_system": "KB", "assay": "Anticancer activity against human KB cells", "type": "functional, cell-based"}, "[3]": {"test_system": "Human immunodeficiency virus 1", "assay": "Antiviral activity against Human immunodeficiency virus 1 harboring reverse transcriptase K103N/Y181C double mutant", "type": "functional, organism-based"}, "[4]": {"test_system": "Human immunodeficiency virus 1", "assay": "Antiviral activity against Human immunodeficiency virus 1 3B", "type": "functional, organism-based"}, "[5]": {"test_system": "Human immunodeficiency virus 2", "assay": "Antiviral activity against Human immunodeficiency virus 2 ROD", "type": "functional, organism-based", "conditions": "Human immunodeficiency virus 2, ISOLATE ROD"}, "[6]": {"test_system": "Human immunodeficiency virus", "assay": "Antiviral activity against Human immunodeficiency virus", "type": "functional, organism-based", "conditions": "Human immunodeficiency virus 1"}, "CCRF-CEM": {"test_system": "CCRF-CEM", "assay": "Growth inhibition of human CCRF-CEM cells at 50 uM", "type": "functional", "conditions": "read-out: GI"}, "[7]": {"biological_target": "Proto-oncogene tyrosine-protein kinase Src (Homo sapiens, UniProt P12931)", "sequence (P12931 2-536 limits assumed)": "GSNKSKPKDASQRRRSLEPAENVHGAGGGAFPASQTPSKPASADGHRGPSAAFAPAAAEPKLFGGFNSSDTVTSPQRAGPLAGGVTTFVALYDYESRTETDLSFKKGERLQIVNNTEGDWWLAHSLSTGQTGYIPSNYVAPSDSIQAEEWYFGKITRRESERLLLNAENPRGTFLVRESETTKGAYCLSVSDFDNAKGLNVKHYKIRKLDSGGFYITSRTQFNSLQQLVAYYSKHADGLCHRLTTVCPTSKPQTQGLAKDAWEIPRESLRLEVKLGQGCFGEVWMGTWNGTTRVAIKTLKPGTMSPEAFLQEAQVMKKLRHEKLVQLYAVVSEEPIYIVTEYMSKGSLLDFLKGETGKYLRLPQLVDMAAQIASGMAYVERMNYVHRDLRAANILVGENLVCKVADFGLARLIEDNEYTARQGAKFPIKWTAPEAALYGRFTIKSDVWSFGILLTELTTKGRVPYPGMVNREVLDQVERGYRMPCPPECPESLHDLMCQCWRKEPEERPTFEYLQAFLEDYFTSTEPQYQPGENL", "assay": "Inhibition of Src kinase (unknown origin)"}, "MCF7": {"test_system": "MCF7", "assay": "Growth inhibition of human MCF7 cells at 50 uM", "type": "functional", "conditions": "read-out: GI"}, "SK-OV-3": {"test_system": "SK-OV-3", "assay": "Growth inhibition of human SKOV3 cells at 50 uM", "type": "functional", "conditions": "read-out: GI"}, "Acetylcholinesterase": {"biological_target": "Acetylcholinesterase (Homo sapiens, UniProt P22303)", "sequence (P22303 whole entry)": "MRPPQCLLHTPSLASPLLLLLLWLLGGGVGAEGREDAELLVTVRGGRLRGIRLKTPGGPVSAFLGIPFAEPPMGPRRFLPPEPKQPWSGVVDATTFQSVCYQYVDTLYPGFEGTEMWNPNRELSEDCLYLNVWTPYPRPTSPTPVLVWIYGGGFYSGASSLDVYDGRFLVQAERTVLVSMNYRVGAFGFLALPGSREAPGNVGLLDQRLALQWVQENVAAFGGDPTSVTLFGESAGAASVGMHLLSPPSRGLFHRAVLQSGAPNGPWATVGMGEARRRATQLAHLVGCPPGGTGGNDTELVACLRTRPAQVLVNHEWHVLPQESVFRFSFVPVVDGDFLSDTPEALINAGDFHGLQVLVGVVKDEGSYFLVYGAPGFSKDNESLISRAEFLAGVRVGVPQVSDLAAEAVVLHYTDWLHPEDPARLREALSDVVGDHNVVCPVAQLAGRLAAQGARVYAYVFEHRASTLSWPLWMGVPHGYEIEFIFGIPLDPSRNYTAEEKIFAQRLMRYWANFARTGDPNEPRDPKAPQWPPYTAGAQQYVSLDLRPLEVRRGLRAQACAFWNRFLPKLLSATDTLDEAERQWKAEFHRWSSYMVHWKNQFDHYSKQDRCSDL", "assay": "Inhibition of AChE (unknown origin)"}}}
{"smiles": "O=c1oc2ccccc2c(O)c1-c1csc(Nc2cccc([N+](=O)[O-])c2)n1", "values": [{"measurement": "MIC", "setting": "Staphylococcus aureus", "value": 31.2, "unit": "µg/mL"}]}
{"smiles": "O=c1oc2ccc(O)cc2cc1-c1cc(O)cc(O)c1", "values": [{"measurement": "IC50", "setting": "Platelet", "value": 10.6, "unit": "µM"}]}
{"smiles": "Cc1cc(=O)oc2cc(OCCCCCCCN3CCN(CC(=O)Nc4c5c(nc6ccccc46)CCCC5)CC3)ccc12", "values": [{"measurement": "Ratio IC50", "setting": "Cholinesterase [1]", "value": 128}, {"measurement": "IC50", "setting": "Cholinesterase [2]", "value": 0.099, "unit": "µM"}]}
{"smiles": "COc1cc(OC)cc(-c2cc3ccc(OC(C)=O)c(OC(C)=O)c3oc2=O)c1", "values": [{"measurement": "IC50", "setting": "KB", "value": 5180, "unit": "µM"}]}
{"smiles": "CCOC(=O)CNc1nc(Nc2ccc(C)cc2)nc(OCc2cc3ccccc3oc2=O)n1", "values": [{"measurement": "IC50", "setting": "[3]", "value": 1, "unit": "µg/mL"}, {"measurement": "IC50", "setting": "[4]", "value": 1, "unit": "µg/mL"}, {"measurement": "IC50", "setting": "[5]", "value": 1, "unit": "µg/mL"}]}
{"smiles": "Cc1cc(=O)oc2cc(OCc3cn(Cc4cc(=O)oc5ccc(Cl)cc45)nn3)ccc12", "values": [{"measurement": "MIC", "setting": "Staphylococcus aureus", "value": 6.25, "unit": "µg/mL"}]}
{"smiles": "O=c1oc2ccccc2cc1CSc1nc2cccnc2[nH]1", "values": [{"measurement": "EC50", "setting": "[6]", "value": 6.8, "unit": "µM"}]}
{"smiles": "O=c1oc2ccccc2cc1CSc1nc2cncnc2[nH]1", "values": [{"measurement": "EC50", "setting": "[6]", "value": 2, "unit": "µM"}]}
{"smiles": "O=c1oc2ccccc2cc1CSc1nc2ccccc2o1", "values": [{"measurement": "EC50", "setting": "[6]", "value": 12, "unit": "µM"}]}
{"smiles": "COc1ccc(/C=C/C(=O)c2c(O)ccc3c(C)cc(=O)oc23)cc1O", "values": [{"measurement": "inhibition of growth at 50 µM", "setting": "CCRF-CEM", "value": 50, "unit": "%"}, {"measurement": "IC50", "setting": "[7]", "value": 14.5, "unit": "µM"}, {"measurement": "inhibition of growth at 50 µM", "setting": "MCF7", "value": 43, "unit": "%"}, {"measurement": "inhibition of growth at 50 µM", "setting": "SK-OV-3", "value": 63, "unit": "%"}]}
{"smiles": "Cc1cc(=O)oc2cc(OCCN3CCN(CC(=O)Nc4c5c(nc6ccccc46)CCCC5)CC3)ccc12", "values": [{"measurement": "IC50", "setting": "Acetylcholinesterase", "value": 0.092, "unit": "µM"}]}
